This passage reports ED50 and inhibition in vivo results from patent publication US4495196A, “Antiinflammatory 4,5-diaryl-α-polyfluoroalkyl-1H-pyrrole-2-methanols and method for use thereof” (E. I. Du Pont de Nemours and Company, priority 1981, dated 1985).

Like-named read-outs stand apart in the source and are kept apart here.

Assay [1] concerns adjuvant-induced arthritis in rats. Description: Established Adjuvant-Induced Arthritis in Rats. The class given is in vivo, Lewis (Wistar) male rats. As to conditions: for ED50: 504 h, read-out: Adjuvant Arthritis ED50.
Assay [2] has as its system phenylquinone-induced writhing in mice. Description: Phenylquinone Writhing Test. Type of assay: in vivo, female white mice. The settings on record: mouse; oral; effective analgesic dose for 50% of the mice; observed 10 minutes from 30 minutes after dosing. The method, then:
Phenylquinone Writhing Test
The phenylquinone writhing test, modified from Siegmund, et al., Proc. Soc. […] A test compound suspended in 1% methylcellulose was given orally to fasted (17-21 hours) female white mice, 5-20 animals per double blind test. Aqueous (0.01% phenyl-p-benzoquinone) phenylquinone was injected intraperitoneally at 24 minutes later using 0.20 ml per mouse.
Background: Writhing tests count abdominal constrictions after an irritant is injected.

Where [3] appears, read: rat, oral gavage once daily for 7 days (days 14-20), ED50% for decrease from control paw volume, estimated by inspection, day 21.
The mark [4] stands for this setting: 168 h, rat, oral once daily for 7 days, read-out: percent reduction in paw volume at the indicated dose.

As to `CN(C)c1ccc(-c2[nH]c(C(O)(C(F)(F)F)C(F)(F)F)cc2-c2ccc(F)cc2)cc1` [Example 10, 4-(4-fluorophenyl)-5-(4-dimethylaminophenyl)-α,α-bis(trifluoromethyl)-1H-pyrrole-2-methanol], the ED50 in assay [1] (setting [3]) was 2.2 mg/kg; in assay [2] it was more than 108 mg/kg.
As to `CS(=O)(=O)c1ccc(-c2[nH]c(C(O)(C(F)(F)F)C(F)(F)F)cc2-c2ccc(F)cc2)cc1` [Example 13], the inhibition in vivo at 27 mg/kg in assay [1] (setting [4]) was determined as 22%. The ED50 in assay [2] is more than 108 mg/kg.
As to `COC(c1cc(-c2ccc(F)cc2)c(-c2ccc(F)cc2)n1C)(C(F)(F)F)C(F)(F)F` [Example 32, 2,3-Bis(4-fluorophenyl)-1-methyl-5-[2,2,2-trifluoro-1-methoxy-1-(trifluoromethyl)ethyl]-1H-pyrrole], the ED50 is 5.5 mg/kg in assay [1] (setting [3]) and more than 108 mg/kg in assay [2].
As for `Cn1c(C(OC(=O)c2ccccc2)(C(F)(F)F)C(F)(F)F)cc(-c2ccc(F)cc2)c1-c1ccc(F)cc1` [Example 35, 4,5-Bis(4-fluorophenyl)-1-methyl-α,α-bis(trifluoromethyl)-1H-pyrrole-2-methanol, Benzoate], the inhibition in vivo at 27 mg/kg in assay [1] (setting [4]) stood at 22%. Moreover, the ED50 in assay [2] was more than 108 mg/kg.
Regarding `Cn1c(C(O)(C(F)(F)F)C(F)(F)F)cc(-c2ccc(F)cc2)c1-c1ccc(F)cc1` [Example 28, 4,5-Bis(4-fluorophenyl)-1-methyl-α,α-bis(trifluoromethyl)-1H-pyrrole-2-methanol], the ED50 in assay [1] (setting [3]) was 0.66 mg/kg; in assay [2], 45 mg/kg.
With `OC(c1cc(-c2ccccc2)c(-c2cccnc2)[nH]1)(C(F)(F)F)C(F)(F)F` [Example 7], the inhibition in vivo at 18 mg/kg in assay [1] (168 h, rat, oral once daily for 7 days, dose 18 mg/kg, read-out: percent reduction in paw volume at the indicated dose) amounted to 31%. Further, the ED50 in assay [2] worked out at 78 mg/kg.
On to `OC(c1cc(-c2ccc(F)cc2)c(-c2ccc(Br)cc2)[nH]1)(C(F)(F)F)C(F)(F)F` [Example 5], for which the ED50 in assay [1] (setting [3]) was 6 mg/kg; in assay [2] it was more than 135 mg/kg.
Regarding `OC(c1cc(-c2ccc(F)cc2)c(-c2ccc(F)cc2)[nH]1)(C(F)(F)F)C(F)(F)F` [Example 3, 4,5-bis(4-fluorophenyl)-α,α-bis(trifluoromethyl)-1H-pyrrole-2-methanol], the ED50 in assay [1] (setting [3]) was 3.5 mg/kg; in assay [2], more than 108 mg/kg.
As to `OC(c1cc(-c2ccccc2)c(-c2ccccc2)[nH]1)(C(F)(F)F)C(F)(F)F` [Example 2], in assay [1] (168 h, rat, oral once daily for 7 days, dose 81 mg/kg, read-out: percent reduction in paw volume at the indicated dose), the inhibition in vivo at 81 mg/kg worked out at 42%. The compound also yielded a 50% effective dose (ED50) in assay [2] of 135 mg/kg.
In the case of `COc1ccc(-c2cc(C(C)(O)C(F)(F)F)[nH]c2-c2ccc(OC)cc2)cc1` (stereo not drawn) [Example 31, 4,5-Bis(4-methoxyphenyl)-α-methyl-α-(trifluoromethyl)-1H-pyrrole-2-methanol], the ED50 in assay [1] (setting [3]) was 1.25 mg/kg; in assay [2], 23 mg/kg.
In the case of `COc1ccc(-c2cc(C(O)(C(F)(F)F)C(F)(F)F)[nH]c2-c2ccc(OC)cc2)cc1` [Example 8], the figures for the ED50 in assay [1] (setting [3]) and in assay [2] were 4 mg/kg and 5.2 mg/kg, respectively.
Taken in the same sequence, the figures for `OC(c1cc(-c2ccc(F)cc2)c(-c2ccc(F)cc2)[nH]1)(C(F)(F)F)C(F)(F)Cl` (centres unmarked) [Example 19] were 2 mg/kg and more than 108 mg/kg.
With `OC(c1cc(-c2ccc(Cl)cc2)c(-c2ccc(Cl)cc2)[nH]1)(C(F)(F)F)C(F)(F)F` [Example 1, 4,5-Bis(4-chlorophenyl)-α,α-bis(trifluoromethyl)-1H-pyrrole-2-methanol], the ED50 was 7 mg/kg in assay [1] (Rattus norvegicus, po) and more than 108 mg/kg in assay [2].
Take `OC(c1cc(-c2ccccc2)c(-c2ccc(Cl)c(Cl)c2)[nH]1)(C(F)(F)F)C(F)(F)F` [Example 4]: the results for the ED50 in assay [1] (setting [3]) and in assay [2] were 70 mg/kg and more than 108 mg/kg, respectively.
For `OC(c1cc(-c2ccc(F)cc2)c(-c2ccc(F)cc2)[nH]1)C(F)(F)C(F)(F)F` (centres unmarked) [Example 37], the ED50 in assay [1] (setting [3]) is 2.9 mg/kg; in assay [2], 103 mg/kg.
On to `OC1(c2cc(-c3ccc(F)cc3)c(-c3ccc(F)cc3)[nH]2)C(F)(F)C(F)(F)C1(F)F` [Example 16], for which the ED50 was 1.3 mg/kg in assay [1] (Rattus norvegicus, po) and more than 108 mg/kg in assay [2].
As to `OC(c1cc(-c2ccc(F)cc2)c(-c2ccc(F)cc2)[nH]1)C(F)(F)F` (stereo not drawn) [Example 29, 4,5-Bis(4-fluorophenyl)-α-(trifluoromethyl)-1H-pyrrole-2-methanol], the 50% effective dose (ED50) in assay [1] (setting [3]) was 11 mg/kg; in assay [2] it was more than 108 mg/kg.
For `OC(c1cc(-c2ccc(F)cc2)c(-c2cccnc2)[nH]1)(C(F)(F)F)C(F)(F)F` [Example 11], the inhibition in vivo at 15 mg/kg in assay [1] (168 h, rat, oral once daily for 7 days, dose 15 mg/kg, read-out: percent reduction in paw volume at the indicated dose) came to 47%. Further, in assay [2], the ED50 is more than 108 mg/kg.
On to `OC(c1cc(-c2ccc(F)cc2)c(-c2ccc(F)cc2)[nH]1)(C(F)F)C(F)(F)F` (centres unmarked) [Example 18], for which the 50% effective dose (ED50) in assay [1] (setting [3]) was 4 mg/kg; in assay [2], more than 108 mg/kg.
Take `Cc1ccc(-c2cc(C(O)(C(F)(F)F)C(F)(F)F)[nH]c2-c2ccc(C)cc2)cc1` [Example 9]: the values for the median effective dose (ED50) in assay [1] (setting [3]) and in assay [2] were 8 mg/kg and more than 108 mg/kg, respectively.
On to `CC(O)(c1cc(-c2ccc(F)cc2)c(-c2ccc(F)cc2)[nH]1)C(F)(F)C(F)(F)F` (centres unmarked) [Example 38], for which the results for the ED50 in assay [1] (setting [3]) and in assay [2] were 3.1 mg/kg and more than 108 mg/kg, respectively.
As for `Fc1ccc(-c2cc(C(OCc3ccccc3)(C(F)(F)F)C(F)(F)F)[nH]c2-c2ccc(F)cc2)cc1` [Example 33, 2,3-Bis(4-fluorophenyl)-5-[2,2,2-trifluoro-1-(phenylmethoxy)-1-(trifluoromethyl)ethyl]-1H-pyrrole], the inhibition in vivo at 25 mg/kg in assay [1] (setting [4]) worked out at 35%.
Regarding `CC(=O)OC(c1cc(-c2ccc(F)cc2)c(-c2ccc(F)cc2)n1C)(C(F)(F)F)C(F)(F)F` [Example 34, 4,5-Bis(4-fluorophenyl)-1-methyl-α,α-bis(trifluoromethyl)-1H-pyrrole-2-methanol, Acetate], the ED50 was 2.5 mg/kg in assay [1] (setting [3]) and more than 108 mg/kg in assay [2].
Regarding `OC(c1cc(-c2ccc(F)cc2)c(-c2ccc(F)cc2)[nH]1)(C(F)(F)Cl)C(F)(F)Cl` [Example 17], the results for the ED50 in assay [1] (setting [3]) and in assay [2] were 6.5 mg/kg and more than 108 mg/kg, respectively.
`OC1(c2cc(-c3ccc(F)cc3)c(-c3ccc(F)cc3)[nH]2)C(F)(F)C(F)(F)C1(F)Br` (centres unmarked) [Example 21]: the ED50 is 20 mg/kg in assay [1] (setting [3]) and more than 108 mg/kg in assay [2].
`CC(O)(c1cc(-c2ccc(F)cc2)c(-c2ccc(F)cc2)[nH]1)C(F)(F)F` (centres unmarked) [Example 50]: the inhibition in vivo at 9 mg/kg in assay [1] (168 h, rat, oral once daily for 7 days, dose 9 mg/kg, read-out: percent reduction in paw volume at the indicated dose) came to 47%. Besides, in assay [2], the ED50 is more than 108 mg/kg.
For `OC1(c2cc(-c3ccc(F)cc3)c(-c3ccc(F)cc3)[nH]2)C(F)(F)C(F)(F)C1(F)Cl` (centres unmarked) [Example 20], the ED50 was 4.5 mg/kg in assay [1] (setting [3]) and more than 108 mg/kg in assay [2].
For the compound `COc1ccc(-c2cc(C(O)C(F)(F)F)[nH]c2-c2ccc(OC)cc2)cc1` (stereo not drawn) [Example 30, 4,5-Bis(4-methoxyphenyl)-α-(trifluoromethyl)-1H-pyrrole-2-methanol], the ED50 in assay [1] (setting [3]) was 5.5 mg/kg; in assay [2] it was 13.4 mg/kg.
As to `OC(c1cc(-c2ccc(F)cc2)c(-c2ccc(F)cc2)[nH]1)(C(F)(F)Cl)C(F)(Cl)Cl` (centres unmarked) [Example 22], the ED50 in assay [1] (Rattus norvegicus, po) is 7 mg/kg; in assay [2], more than 108 mg/kg.
With `Cc1c(C(O)(C(F)(F)F)C(F)(F)F)[nH]c(-c2ccc(F)cc2)c1-c1ccc(F)cc1` [Example 6], the median effective dose (ED50) was 2.8 mg/kg in assay [1] (setting [3]) and more than 135 mg/kg in assay [2].
Take `CSc1ccc(-c2[nH]c(C(O)(C(F)(F)F)C(F)(F)F)cc2-c2ccc(F)cc2)cc1` [Example 12]: the ED50 in assay [1] (setting [3]) was 9 mg/kg; in assay [2], more than 108 mg/kg.
`COC(=O)OC(c1cc(-c2ccc(F)cc2)c(-c2ccc(F)cc2)n1C)(C(F)(F)F)C(F)(F)F` [Example 36, 4,5-Bis(4-fluorophenyl)-1-methyl-α,α-bis(trifluoromethyl)-1H-pyrrole-2-methanol, Methylcarbonate]: in assay [1] (setting [4]), the inhibition in vivo at 25 mg/kg was found to be 46%. Besides, the ED50 in assay [2] was more than 108 mg/kg.
With `OC(c1cc(-c2ccc(F)cc2)c(-c2ccc(F)cc2)[nH]1)C(F)(F)C(F)(F)C(F)(F)F` (centres unmarked) [Example 49], the ED50 in assay [1] (Rattus norvegicus, po) is 7 mg/kg; in assay [2], more than 108 mg/kg.

What is called ED50 is the dose at which the effect has come halfway, by size or by number of responders.
